Legend:
[1] = test system: rat primary cortical neurons; experiment: Neuron survival assay against NMDA insult (LDH release); assay type: cell-based; settings: NMDA 20 μM; for protection of rat primary cortical neurons from NMDA insults (LDH release, fold change vs DMSO): compounds 10-30 μg/ml, 11 DIV; for cell death (LDH release, cell cytotoxicity vs DMSO): compound 10 μg/mL, DIV 11
Experimental: Primary cortical and hippocampal neurons were prepared from embryonic day 18 (E18) Sprague-Dawley rats. Neurons were plated on 24-well plate (TPP, Corning) at a density of 2×10^5 cells per well using Neurobasal medium (Invitrogen) supplemented with 2% B27 (Invitrogen). Neurons at 11-12 days in vitro (12 DIV) were subjected to drug treatment. Neurons were pretreated with the test compound for 2 hours prior to NMDA treatment. 0.1 μM (+)-MK-801 Hydrogen Maleate (Sigma) was added as a positive control. Briefly, the neurons were rinsed with Locke's solution (5 mM potassium chloride, 128 mM sodium chloride, 2.7 mM calcium chloride, 1 mM di-sodium hydrogen orthophosphate, 5 mM HEPES and 10 mM glucose in Milli-Q water) without Mg^2+, and incubated with addition of glycine (10 μM) for 15 minutes. After the incubation, the neurons were co-treated with the test compound (dissolved in Locke's plus glycine solution) and NMDA (20 μM; Sigma) for 20 minutes. Neurons were rinsed with Locke's plus Mg^2+ and replaced with fresh growth medium. The cell death was assayed and quantified using the lactate dehydrogenase release assay (Roche) after 24 hours.
Embryonic rat cortical neurons (11 DIV) were treated with NMDA (20 μM) in the absence or presence of the LC series of compounds (10-30 μg/ml). […] LDH release in the medium after overnight incubation was measured and fold change was calculated when compared to the solvent control, DMSO.
Embryonic rat cortical neurons (DIV 11) were treated with NMDA (20 μM) in the absence or presence of LC-01 or LC-02 (μg/mL). LDH release in the medium after overnight incubation was measured and cell cytotoxicity was calculated in percentage when compared to the solvent control, DMSO.
Embryonic rat cortical neurons (DIV 11) were treated with NMDA (20 μM) in the absence or presence of LC-06 (μg/mL). LDH release in the medium after overnight incubation was measured and cell cytotoxicity was calculated in percentage when compared to the solvent control, DMSO.
Embryonic rat cortical neurons (11 DIV) were treated with NMDA (20 μM) in the absence or presence of LC-24 or LC-25 (μg/mL). LDH release in the medium after overnight incubation was measured and cell cytotoxicity was calculated in percentage when compared to solvent control (DMSO).

NMDA receptor = experiment: Whole-cell patch clamp of NMDA-induced current in hippocampal neurons; assay type: cell-based, rat; settings: compound 500 uM co-applied with NMDA 200 uM
Experimental: Hippocampal neurons were prepared from embryonic day 18 Sprague-Dawley rats. After the hippocampus had been removed from the brain, isolated cells were plated onto Poly d-Lysine (PDL) (P0899, Sigma)-coated 35 mm dishes (153066, NUNC) at a density of 3×10^5 cell per plate using Neurobasal Medium (NB) (21103-049, Gibco) with B27 supplement (17504-044, Gibco), penicillin/streptomycin (15140, Gibco) and 1 mM L-glutamine (25030, Gibco). The cell culture was incubated at 37° C. in a humidified atmosphere of 5% CO2 in air. Half of the medium was changed with NB, B27 and 50 μM L-glutamine every 2 to 3 days. On day 12 in vitro (12 DIV), whole-cell patch clamp was performed. The internal solution contained 120 mM cesium chloride, 20 mM tetraethylammonium chloride, 2 mM magnesium chloride, 1 mM calcium chloride and 10 mM HEPES (pH 7.2). The external solution contained 137 mM sodium chloride, 1 mM sodium bicarbonate, 0.34 mM sodium phosphate dibasic, 5.37 mM potassium chloride, 0.44 mM potassium phosphate monobasic, 2.5 mM HEPES (pH 7.4) and 22.2 mM glucose. Samples mixed with 50 μM NMDA (M3262, Sigma) were arranged in linear array of up to 8 individual controlled pipes (List Medical, Germany) which were connected to solution reservoirs. Memantine (10 μM, M9292, Sigma) was used as a positive control. Pipettes were fire-polished to produce a pipette resistance of 3-5 MΩ. Holding potential of patched cells was kept at −80 mV and currents were recorded using Axopatch-200B amplifier (Axon Instruments, USA). Tetrodotoxin (5 μM) and bicuculline methiodide (20 μM) (0109, Tocris) were present in the bath solution to block synaptic transmission mediated by voltage-gated sodium channels and […], respectively. Data was analyzed by pClamp9 software and percentage of inhibition on NMDA-induced current was represented in comparison to solvent control.
The NMDA receptor is a gated ion channel, which allows inflow of current during a nerve impulse. Antagonists to the receptor would prevent the inflow of current.
In FIG. 1A, hippocampal neurons from embryonic day 18 rats were isolated, trypsinized, plated onto 35-mm plates at a density of 3×10^4 cells/plate and cultured in Neurobasal medium (NB) supplemented with B27 nutrient. Rat hippocampal neurons (10-14 DIV) were treated with NMDA (50 μM) in the absence or presence of the compound LC-02 (10 μg/mL). Data is presented as % of NMDA-induced current. DMSO is the solvent control.
(§1) In FIG. 1B, NMDA antagonistic effect of LC-02 on current responses of a single hippocampal neuron. NMDA (200 uM) was applied for 2.5 sec every 30 sec but these inter-response intervals have been deleted from the above figure for a better resolution of the kinetics of individual responses (blank space in trace). LC-02 (500 uM) was co-applied with NMDA.
In FIG. 1C, effects of LC-02 on pooled NMDA current responses. Normalized peak and plateau currents are shown in the absence (DMSO) and presence of LC-02.
as §1, with “8, (a)” for “1B,”, “LC-06” for “LC-02”, “NMDA. […] (b) Effects of LC-06 on pooled NMDA current responses. Normalized peak and plateau currents are shown in the absence (DMSO) and presence of LC-06.” for “NMDA.”
as §1, with “9, (a)” for “1B,”, “LC-24” for “LC-02”, “NMDA. […] (b) Effects of LC-24 on pooled NMDA current responses. Normalized peak and plateau currents are shown in the absence (DMSO) and presence of LC-24. […]” for “NMDA.”

| Structure (SMILES) | protection of rat primary cortical neurons from NMDA insults (LDH release, fold change vs DMSO) [1] | pooled NMDA current responses (normalized peak and plateau currents) (NMDA receptor; vs DMSO, n=6) | recovery of NMDA-induced current after compound was washed out (NMDA receptor; single hippocampal neuron) | cell death (LDH release, cell cytotoxicity vs DMSO) [1] |
| --- | --- | --- | --- | --- |
| CCC(C)[C@@H]1N[C@@H](CC)OC1(CC)CC (stereo partly shown) [LC-09] | weaker neuroprotective effects | – | – | – |
| CCCC1(CCC)O[C@@H](c2ccccc2)N[C@H]1C(C)CC (stereo partly shown) [LC-16] | weaker neuroprotective effects | – | – | – |
| CCC[C@H]1N[C@@H](C(C)CC)C(CCC)(CCC)O1 (stereo partly shown) [LC-15] | weaker neuroprotective effects | – | – | – |
| CCC[C@@H]1N[C@@H](C(C)CC)C(CC)(CC)O1 (stereo partly shown) [LC-11] | weaker neuroprotective effects | – | – | – |
| CCC(C)[C@@H]1N[C@H](CC)OC1(CC)CC (stereo partly shown) [LC-10] | weaker neuroprotective effects | – | – | – |
| CCCC1(CCC)O[C@@H](CC)N[C@H]1C(C)CC (stereo partly shown) [LC-14] | weaker neuroprotective effects | – | – | – |
| CCC[C@H]1N[C@@H](C(C)CC)C(CC)(CC)O1 (stereo partly shown) [LC-12] | weaker neuroprotective effects | – | – | – |
| CCC[C@H]1N[C@@H](Cc2ccccc2)C(CC)(CC)O1 [LC-25] | significantly protected | significantly inhibits NMDA-induced current | Partial recovery of NMDA-induced current | cell death was markedly reduced |
| CC[C@@H]1N[C@@H](CC(C)C)C(CC)(CC)O1 [LC-01] | significantly protected | – | – | cell death was markedly reduced |
